Assay results as given in US20250382344A1, “Soluble GLP1/GIP/NPY2 Receptor Triple Agonists” (Boehringer Ingelheim International GmH, priority 2024, published 2025).
Read-outs that look alike come from different tables or passages of the source.

How the values were obtained:
hGIPR = target: T1, hGIPR (Homo sapiens, UniProt P48546); assay: hGIPR CreLuc assay in 0.5% and 100% plasma (CHO CRE-luciferase reporter cells); format: cell-based
T1 construct: expressed in transfected cells; host or cells: CHO CRE-luciferase reporter cells
T1 sequence (P48546 22-466): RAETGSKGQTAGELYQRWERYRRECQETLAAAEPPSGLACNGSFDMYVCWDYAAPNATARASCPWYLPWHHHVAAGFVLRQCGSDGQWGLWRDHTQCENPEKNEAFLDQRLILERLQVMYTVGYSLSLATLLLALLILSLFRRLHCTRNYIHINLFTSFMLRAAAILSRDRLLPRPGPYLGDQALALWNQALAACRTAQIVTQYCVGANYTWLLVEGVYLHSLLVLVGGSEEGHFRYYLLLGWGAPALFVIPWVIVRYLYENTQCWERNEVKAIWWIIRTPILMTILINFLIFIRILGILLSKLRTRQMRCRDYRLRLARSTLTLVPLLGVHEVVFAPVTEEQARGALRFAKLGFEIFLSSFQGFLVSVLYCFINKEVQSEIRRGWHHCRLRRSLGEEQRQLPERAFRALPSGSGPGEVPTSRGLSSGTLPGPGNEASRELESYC
Excerpt: CHO and HEK-293 recombinant cell lines express a luciferase reporter gene under control of the CAMP responsive element (CRE). As a second recombinant protein the GLP-1 and NPY2 receptors were expressed in the reporter gene HEK cells, and the GIP receptor was expressed in the reporter gene CHO cells, respectively. Stimulation of these recombinant cells with an agonist leads to an increase of intracellular CAMP levels. In the presence of CAMP, the transcription factor CRE binding protein (CREB) binds to the CRE and to the CREB binding protein (CBP), which leads to transcription of the luciferase reporter gene. Peptides upon serial-dilution in 100% DMSO were transferred into 384-well assay plates with 5 μl pre-dispensed assay buffer (1×HBSS, 20 mM HEPES, pH7.4 supplemented with 0.5% human plasma) using acoustic dispensing on a Labcyte ECHO. Cryo-preserved transgenic reporter gene cells were thawed in assay buffer. 20 μl (10.000 cells/well) were added to the plate with the peptides and incubated for 4 hours at 37° C. in a humidified incubator. Following incubation, assay plates are equilibrated to room temperature, followed by addition of 25 μl of Bright-Glo™ Luciferase reagent, incubation at room temperature for 10 minutes and analysis of luminescence (Envision Reader). […] EC50 values were calculated by non-linear regression using sigmoid concentration-response with variable slope.
The same assays were run in the presence of 100% plasma with no additional buffer constituents.

[1] = Solubility in 0.1 M phosphate buffer at pH 7; format: physicochemical; conditions: 0.1 M phosphate buffer at pH 7, 10 mg/mL final peptide concentration, shaking 2 hours at room temperature, peptides as TFA-salts, measured sample pH 6.5-7.0
[2] = 0.5% human plasma, read-out: hGIPR 0.5% hP
[3] = 100% human plasma, read-out: hGIPR 100% hP

SMILES	EC50 (hGIPR; [2]) [nM]	EC50 (hGIPR; [3]) [nM]	solubility at 2 h [1] [µg/mL]	solubility ([1]; read-out: Solubility) [µg/mL]
CC[C@H](C)[C@H](NC(=O)[C@H](CC(C)C)NC(=O)[C@H](Cc1c[nH]cn1)NC(=O)[C@H](CCCNC(=N)N)NC(=O)[C@@H](NC(=O)[C@H](Cc1ccccc1)NC(=O)[C@H](C)NC(=O)C(C)(C)NC(=O)[C@H](CCC(N)=O)NC(=O)[C@H](C)NC(=O)[C@H](CCC(N)=O)NC(=O)[C@H](CC(N)=O)NC(=O)[C@H](CCC(=O)O)NC(=O)[C@H](CC(C)C)NC(=O)C(C)(C)NC(=O)[C@@H](NC(=O)[C@H](CO)NC(=O)[C@H](Cc1ccc(O)cc1)NC(=O)[C@H](CC(=O)O)NC(=O)[C@H](CO)NC(=O)[C@@H](NC(=O)[C@H](Cc1ccccc1)NC(=O)[C@@H](NC(=O)CNC(=O)[C@H](CCC(=O)O)NC(=O)C(C)(C)NC(=O)[C@@H](N)Cc1ccc(O)cc1)[C@@H](C)O)[C@@H](C)O)[C@@H](C)CC)C(C)C)C(=O)N[C@@H](CC(N)=O)C(=O)N[C@@H](CCCCNC(=O)[C@@H](N)CCCCNC(=O)CC[C@H](NC(=O)CC[C@H](NC(=O)CC[C@H](NC(=O)CC[C@H](NC(=O)CC[C@H](NC(=O)CC[C@H](NC(=O)CCCCCCCCCCCCCCCCC(=O)O)C(=O)O)C(=O)O)C(=O)O)C(=O)O)C(=O)O)C(=O)O)C(=O)NC(C)(C)C(=O)N[C@H](C(=O)N[C@@H](CCCNC(=N)N)C(=O)N[C@@H](CCC(N)=O)C(=O)N[C@@H](CCCNC(=N)N)C(=O)N[C@@H](Cc1ccc(O)cc1)C(N)=O)[C@@H](C)O [Compound 6, Y-Aib-E-G-T-F-T-S-D-Y-S-I-Aib-L-E-N-Q-A-Q-Aib-A-F-V-R-H-L-I-N-K(1,3)-Aib-T-R-Q-R-Y-NH2.C18DA-gGlu-gGlu-gGlu-gGlu-gGlu-gGlu-eLys(1,2)]	0.7	–	8900	–
CC[C@H](C)[C@H](NC(=O)[C@H](CC(C)C)NC(=O)[C@H](Cc1c[nH]cn1)NC(=O)[C@H](CCCNC(=N)N)NC(=O)[C@@H](NC(=O)[C@H](Cc1ccccc1)NC(=O)[C@H](C)NC(=O)C(C)(C)NC(=O)[C@H](CCC(N)=O)NC(=O)[C@H](C)NC(=O)[C@H](CCC(N)=O)NC(=O)[C@H](CCCCN)NC(=O)[C@H](CCC(=O)O)NC(=O)[C@H](CC(C)C)NC(=O)C(C)(C)NC(=O)[C@@H](NC(=O)[C@H](CO)NC(=O)[C@H](Cc1ccc(O)cc1)NC(=O)[C@H](CC(=O)O)NC(=O)[C@H](CO)NC(=O)[C@@H](NC(=O)[C@H](Cc1ccccc1)NC(=O)[C@@H](NC(=O)CNC(=O)[C@H](CCC(=O)O)NC(=O)C(C)(C)NC(=O)[C@@H](N)Cc1ccc(O)cc1)[C@@H](C)O)[C@@H](C)O)[C@@H](C)CC)C(C)C)C(=O)N[C@@H](CC(N)=O)C(=O)N[C@@H](CCCCNC(=O)[C@@H](N)CCCCNC(=O)CC[C@H](NC(=O)CC[C@H](NC(=O)CC[C@H](NC(=O)CC[C@H](NC(=O)CC[C@H](NC(=O)CC[C@H](NC(=O)CCCCCCCCCCCCCCCCCCC(=O)O)C(=O)O)C(=O)O)C(=O)O)C(=O)O)C(=O)O)C(=O)O)C(=O)NC(C)(C)C(=O)N[C@H](C(=O)N[C@@H](CCCNC(=N)N)C(=O)N(C)[C@@H](CCC(N)=O)C(=O)N[C@@H](CCCNC(=N)N)C(=O)N[C@@H](Cc1ccc(O)cc1)C(N)=O)[C@@H](C)O [Compound 26, Y-Aib-E-G-T-F-T-S-D-Y-S-I-Aib-L-E-K-Q-A-Q-Aib-A-F-V-R-H-L-I-N-K(1,3)-Aib-T-R-NMeQ-R-Y-NH2.C20DA-gGlu-gGlu-gGlu-gGlu-gGlu-gGlu-eLys(1,2)]	0.3	5.6	–	9400

The remaining compounds from weak to strong by EC50 (hGIPR; [2]), led by results:

EC50 (hGIPR; [2]) [nM]	EC50 (hGIPR; [3]) [nM]	solubility at 2 h [1] [µg/mL]	solubility ([1]; read-out: Solubility) [µg/mL]	SMILES
0.3	11.5	10000	–	CC[C@H](C)[C@H](NC(=O)[C@H](CC(C)C)NC(=O)[C@H](Cc1c[nH]cn1)NC(=O)[C@H](CCCNC(=N)N)NC(=O)[C@@H](NC(=O)[C@H](Cc1ccccc1)NC(=O)[C@H](C)NC(=O)C(C)(C)NC(=O)[C@H](CCC(N)=O)NC(=O)[C@H](C)NC(=O)[C@H](C)NC(=O)[C@H](CCCCN)NC(=O)[C@H](CCC(=O)O)NC(=O)[C@H](CC(C)C)NC(=O)C(C)(C)NC(=O)[C@@H](NC(=O)[C@H](CO)NC(=O)[C@H](Cc1ccc(O)cc1)NC(=O)[C@H](CC(=O)O)NC(=O)[C@H](CO)NC(=O)[C@@H](NC(=O)[C@H](Cc1ccccc1)NC(=O)[C@@H](NC(=O)CNC(=O)[C@H](CCC(=O)O)NC(=O)C(C)(C)NC(=O)[C@@H](N)Cc1ccc(O)cc1)[C@@H](C)O)[C@@H](C)O)[C@@H](C)CC)C(C)C)C(=O)N[C@@H](CC(N)=O)C(=O)N[C@@H](CCCCNC(=O)[C@@H](N)CCCCNC(=O)CC[C@H](NC(=O)CC[C@H](NC(=O)CC[C@H](NC(=O)CC[C@H](NC(=O)CC[C@H](NC(=O)CC[C@H](NC(=O)CCCCCCCCCCCCCCCCCCC(=O)O)C(=O)O)C(=O)O)C(=O)O)C(=O)O)C(=O)O)C(=O)O)C(=O)NC(C)(C)C(=O)N[C@H](C(=O)N[C@@H](CCCNC(=N)N)C(=O)N[C@@H](CCC(N)=O)C(=O)N[C@@H](CCCNC(=N)N)C(=O)N[C@@H](Cc1ccc(O)cc1)C(N)=O)[C@@H](C)O [Compound 4, Y-Aib-E-G-T-F-T-S-D-Y-S-I-Aib-L-E-K-A-A-Q-Aib-A-F-V-R-H-L-I-N-K(1,3)-Aib-T-R-Q-R-Y-NH2.C20DA-gGlu-gGlu-gGlu-gGlu-gGlu-gGlu-eLys(1,2)]
0.3	8	800	–	CC[C@H](C)[C@H](NC(=O)[C@H](CC(C)C)NC(=O)[C@H](Cc1c[nH]cn1)NC(=O)[C@H](CCCNC(=N)N)NC(=O)[C@@H](NC(=O)[C@H](Cc1ccccc1)NC(=O)[C@H](C)NC(=O)C(C)(C)NC(=O)[C@H](CCC(N)=O)NC(=O)[C@H](C)NC(=O)[C@H](CCC(N)=O)NC(=O)[C@H](CCCCN)NC(=O)[C@H](CCC(=O)O)NC(=O)[C@H](CC(C)C)NC(=O)C(C)(C)NC(=O)[C@@H](NC(=O)[C@H](CO)NC(=O)[C@H](Cc1ccc(O)cc1)NC(=O)[C@H](CC(=O)O)NC(=O)[C@H](CO)NC(=O)[C@@H](NC(=O)[C@H](Cc1ccccc1)NC(=O)[C@@H](NC(=O)CNC(=O)[C@H](CCC(=O)O)NC(=O)C(C)(C)NC(=O)[C@@H](N)Cc1ccc(O)cc1)[C@@H](C)O)[C@@H](C)O)[C@@H](C)CC)C(C)C)C(=O)N[C@@H](CC(N)=O)C(=O)N[C@@H](CCCCNC(=O)[C@@H](N)CCCCNC(=O)[C@@H](N)CCCCNC(=O)CC[C@H](NC(=O)CC[C@H](NC(=O)CC[C@H](NC(=O)CC[C@H](NC(=O)CC[C@H](NC(=O)CC[C@H](NC(=O)CCCCCCCCCCCCCCCCC(=O)O)C(=O)O)C(=O)O)C(=O)O)C(=O)O)C(=O)O)C(=O)O)C(=O)NC(C)(C)C(=O)N[C@H](C(=O)N[C@@H](CCCNC(=N)N)C(=O)N[C@@H](CCC(N)=O)C(=O)N[C@@H](CCCNC(=N)N)C(=O)N[C@@H](Cc1ccc(O)cc1)C(N)=O)[C@@H](C)O [Compound 11, Y-Aib-E-G-T-F-T-S-D-Y-S-I-Aib-L-E-K-Q-A-Q-Aib-A-F-V-R-H-L-I-N-K(1,3)-Aib-T-R-Q-R-Y-NH2.C18DA-gGlu-gGlu-gGlu-gGlu-gGlu-gGlu-eLys-eLys(1,2)]
0.2	2	4000	–	CC[C@H](C)[C@H](NC(=O)[C@H](CC(C)C)NC(=O)[C@H](Cc1c[nH]cn1)NC(=O)[C@H](CCCNC(=N)N)NC(=O)[C@@H](NC(=O)[C@H](Cc1ccccc1)NC(=O)[C@H](C)NC(=O)C(C)(C)NC(=O)[C@H](CCC(N)=O)NC(=O)[C@H](C)NC(=O)[C@H](CCC(N)=O)NC(=O)[C@H](CCCCN)NC(=O)[C@H](CCC(=O)O)NC(=O)[C@H](CC(C)C)NC(=O)C(C)(C)NC(=O)[C@@H](NC(=O)[C@H](CO)NC(=O)[C@H](Cc1ccc(O)cc1)NC(=O)[C@H](CC(=O)O)NC(=O)[C@H](CO)NC(=O)[C@@H](NC(=O)[C@H](Cc1ccccc1)NC(=O)[C@@H](NC(=O)CNC(=O)[C@H](CCC(=O)O)NC(=O)C(C)(C)NC(=O)[C@@H](N)Cc1ccc(O)cc1)[C@@H](C)O)[C@@H](C)O)[C@@H](C)CC)C(C)C)C(=O)N[C@@H](CC(N)=O)C(=O)N[C@@H](CCCCNC(=O)[C@@H](N)CCCCNC(=O)CC[C@H](NC(=O)CC[C@H](NC(=O)CC[C@H](NC(=O)CC[C@H](NC(=O)CC[C@H](NC(=O)CC[C@H](NC(=O)CCCCCCCCCCCCCCCCC(=O)O)C(=O)O)C(=O)O)C(=O)O)C(=O)O)C(=O)O)C(=O)O)C(=O)NC(C)(C)C(=O)N[C@H](C(=O)N[C@@H](CCCNC(=N)N)C(=O)N(C)[C@@H](CCC(N)=O)C(=O)N[C@@H](CCCNC(=N)N)C(=O)N[C@@H](Cc1ccc(O)cc1)C(N)=O)[C@@H](C)O [Compound 17, Y-Aib-E-G-T-F-T-S-D-Y-S-I-Aib-L-E-K-Q-A-Q-Aib-A-F-V-R-H-L-I-N-K(1,3)-Aib-T-R-NMeQ-R-Y-NH2.C18DA-gGlu-gGlu-gGlu-gGlu-gGlu-gGlu-eLys(1,2)]
